# Data published in US20030083469A1, “Allosteric control of nuclear hormone receptors” (The Salk Institute for Biological Studies, priority 1995, published 2003).
# Columns and labels:
# Format in all cases: cell-based
# [1] = target: T1, GAL-RXR + RAR LBD (Homo sapiens, UniProt P10276+P19793); assay: Transient transfection analysis of GAL-RXR LBD in the presence of RAR LBD
# T1 construct: human RXRα LBD (Glu 203 - Thr 462); HRARα LBD (Glu 156 - PRO 462); expressed in transfected cells; host or cells: CV-1
# T1 sequence (P19793 203-462): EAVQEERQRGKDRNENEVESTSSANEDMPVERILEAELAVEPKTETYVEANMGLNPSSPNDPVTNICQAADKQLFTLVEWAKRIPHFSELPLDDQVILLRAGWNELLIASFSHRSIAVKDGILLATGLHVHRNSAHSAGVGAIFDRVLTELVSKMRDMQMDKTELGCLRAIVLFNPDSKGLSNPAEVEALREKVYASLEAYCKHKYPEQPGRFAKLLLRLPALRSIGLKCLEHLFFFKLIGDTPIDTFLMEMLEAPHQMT
# T1 sequence (P10276 156-462): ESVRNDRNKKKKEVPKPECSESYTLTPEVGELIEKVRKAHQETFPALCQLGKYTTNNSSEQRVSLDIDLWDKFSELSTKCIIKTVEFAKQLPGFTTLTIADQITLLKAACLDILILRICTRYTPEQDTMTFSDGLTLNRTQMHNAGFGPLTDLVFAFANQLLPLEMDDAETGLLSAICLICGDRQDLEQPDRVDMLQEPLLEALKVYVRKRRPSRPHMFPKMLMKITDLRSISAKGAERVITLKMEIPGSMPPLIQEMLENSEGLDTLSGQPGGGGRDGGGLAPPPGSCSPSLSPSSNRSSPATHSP
# Method: (§1) CV-1 cells were grown in Dulbecco's Modified Eagle's medium supplemented with 10% resin-charcoal stripped (Samuels et al., Endocrinology 105:80-85 (1979)) fetal bovine serum, 50 U/ml penicillin G and 50 μg/ml streptomycin sulfate (DMEM-FBS) at 37° C. in 5% CO2. One day prior to transfection, cells were plated to 50-80% confluence using phenol-red free DMEM-FBS. Cells were transfected by lipofection using N-{2-(2,3)-dioleoyloxy)propyl-N,N,N-trimethyl ammonium methyl sulfate} according to the manufacturer's instructions (DOTAP, Boehringer Mannheim). […]. All points were performed in triplicate in each experiment and varied by less than 10%. Each experiment was repeated three or more times with similar results.
# (§2) Thus, a chimeric protein was constructed containing the yeast GAL4 DBD linked to the RXR LBD (GAL-RXR). The ability of this RXR-chimera to respond to LG69 was initially examined in the presence of truncated receptors containing the LBDs of T3R or RAR. Thus, transient transfection analysis of GAL-RXR LBD was carried out in the presence of T3R, RAR or VDR LBDs. Reporter constructs contained 4 copies of the UASG cloned upstream of the TK-LUC reporter. […] Normalized luciferase activity was determined and plotted as reporter activity (see FIG. 3).
# (§3) […]. Normalized luciferase activity was determined and plotted as fold-activation relative to untreated cells.
# [2] = target: T2, RAR-RXR heterodimers (Homo sapiens, UniProt P10276+P19793); assay: Transient transfection analysis of RAR-RXR heterodimers (TK-LUC reporter, CV-1 cells)
# T2 construct: transient transfection analysis of full-length Nurrl and/or RXR; expressed in transfected cells; host or cells: CV-1
# T2 sequence (P10276 1-462): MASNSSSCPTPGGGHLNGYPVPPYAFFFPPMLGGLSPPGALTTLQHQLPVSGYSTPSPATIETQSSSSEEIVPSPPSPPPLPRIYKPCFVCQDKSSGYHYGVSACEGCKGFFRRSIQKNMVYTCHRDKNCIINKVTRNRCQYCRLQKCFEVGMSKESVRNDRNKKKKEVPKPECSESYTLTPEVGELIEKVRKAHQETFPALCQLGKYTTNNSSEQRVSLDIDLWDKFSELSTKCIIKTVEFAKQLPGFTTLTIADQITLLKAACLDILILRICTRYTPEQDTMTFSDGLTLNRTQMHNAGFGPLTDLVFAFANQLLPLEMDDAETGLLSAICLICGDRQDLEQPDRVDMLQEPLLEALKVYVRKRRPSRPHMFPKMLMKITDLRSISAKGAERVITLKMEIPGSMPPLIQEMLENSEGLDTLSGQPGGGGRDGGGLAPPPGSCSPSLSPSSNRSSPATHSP
# T2 sequence (P19793 1-462): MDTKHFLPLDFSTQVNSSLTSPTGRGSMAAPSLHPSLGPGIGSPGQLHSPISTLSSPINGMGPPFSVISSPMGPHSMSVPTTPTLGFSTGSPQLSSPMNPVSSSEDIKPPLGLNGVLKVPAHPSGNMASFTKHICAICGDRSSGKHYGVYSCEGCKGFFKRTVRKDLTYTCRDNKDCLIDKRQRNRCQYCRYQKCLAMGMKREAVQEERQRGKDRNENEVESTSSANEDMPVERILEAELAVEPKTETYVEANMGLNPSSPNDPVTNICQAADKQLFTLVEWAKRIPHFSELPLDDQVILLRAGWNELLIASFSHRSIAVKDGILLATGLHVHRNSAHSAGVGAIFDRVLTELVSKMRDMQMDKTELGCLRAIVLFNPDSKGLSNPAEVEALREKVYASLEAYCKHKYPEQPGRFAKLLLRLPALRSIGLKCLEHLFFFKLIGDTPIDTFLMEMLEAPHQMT
# Method: One day prior to transfection, cells were plated to 50-80% confluence using phenol-red free DMEM-FBS. Cells were transfected by lipofection using N-{2-(2,3)-dioleoyloxy)propyl-N,N,N-trimethyl ammonium methyl sulfate} according to the manufacturer's instructions (DOTAP, Boehringer Mannheim).
# In the right panel of FIG. 2, cells were transfected with HRE×1 TK-LUC (300 ng/10^5 cells), CMX-hRARα (50 ng/10^5 cells) CMX-hRXRα (50 ng/10^5 cells) and CMX-βgal (500 ng/10^5 cells) . […] Normalized luciferase activity was determined and plotted as fold-activation relative to untreated cells.
# [3] = target: T3, GAL-RXR (Homo sapiens, UniProt P19793); assay: Transient transfection analysis of GAL-RXR LBD alone (UASG x4 TK-LUC, CV-1 cells); conditions: 100 nM LG69
# T3 construct: human RXRα LBD (Glu 203 - Thr 462); expressed in transfected cells; host or cells: CV-1
# T3 sequence (P19793 203-462): T1 sequence (P19793 203-462)
# Method: as §1, §2, §3
compound,measurement,setting,value
"CC=C(c1ccc(C(=O)O)cc1)c1cc2c(cc1C)C(C)(C)CCC2(C)C [LG69, 4-{1-(3,5,5,8,8-pentamethyl-5,6,7,8-tetrahydro-2-napthalenyl)-1-propenyl}benzoic acid]",transcriptional activity with Am580+LG69 over that seen with AM580 alone,"[1]; GAL-RXR + RAR LBD, 50 nM AM580+100 nM LG69",increased transcriptional activity
same,fold-responsiveness of GAL-RXR to LG69,"[1]; unliganded RAR LBD present, 100 nM LG69",strongly suppressed
same,transcriptional activity with Am580+LG69 over that seen with AM580 alone,"[2]; 50 nM Am580+100 nM LG69, full-length receptors",increased transcriptional activity
same,responsiveness of transfected cells to ligand (luciferase fold-activation),"[2]; CV-1 cells transfected with RARα and RXRα, 50 nM Am580 or 100 nM LG69",unresponsive
same,activation of the UASG reporter by GAL-RXR in response to ligand,[3],activated
same,fold response to LG69,[3]; GAL-RXR alone,69 fold
